Assay results from patent US12077503B2, “Substituted cyclic amides and their use as herbicides” (FMC CORPORATION, priority 2015, dated 2024).

Key:
Format in all cases: in vivo
[1] = system: giant foxtail (Setaria faberi); test: Test G Pre-Emergence Protocol; conditions: Setaria faberi, pre-emergence, 312 h, evaluated after 13 days
In short: (§1)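 One day after sowing, pots are treated with a spray of test compound formulated in acetone/water 50:50 plus 0.5% Tween 20, giving 15.625, 62.5 or 250 g/ha. Evaluation on a 0–100 damage scale follows 13 days of glasshouse growth.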

[2] = system: barnyardgrass (Echinochloa crus-galli); test: Test G Pre-Emergence Protocol; conditions: Echinochloa crus-galli, pre-emergence, 312 h, evaluated after 13 days
In short: as §1

[3] = system: redroot pigweed (Amaranthus retroflexus); test: Test G Pre-Emergence Protocol; conditions: Amaranthus retroflexus, pre-emergence, 312 h, evaluated after 13 days
In short: as §1

[4] = system: corn (Zea mays); test: Test G Pre-Emergence Protocol; conditions: Zea mays, pre-emergence, 312 h, evaluated after 13 days
In short: as §1

[5] = system: ivy-leaved morning glory (Ipomoea hederacea); test: Test G Pre-Emergence Protocol; conditions: Ipomoea, pre-emergence, 312 h, evaluated after 13 days
In short: as §1

[6] = system: velvetleaf (Abutilon theophrasti); test: Test G Pre-Emergence Protocol; conditions: Abutilon theophrasti, pre-emergence, 312 h, evaluated after 13 days
In short: as §1

[7] = system: giant foxtail (Setaria faberi); test: Test G Post-Emergence Protocol; conditions: Setaria faberi, post-emergence, 312 h, read-out: Foxtail, Giant damage rating
In short: (§2)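 Damage was rated 13 days after treatment from 0 (none) to 100 (plant killed). Compound was applied as a spray at 15.625, 62.5 or 250 g/ha in 50:50 acetone/water containing 0.5% Tween 20, onto 8-day-old potted plants kept in a glasshouse (24/16 °C, 14 h light, 65% humidity).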

[8] = system: barnyardgrass (Echinochloa crus-galli); test: Test G Post-Emergence Protocol; conditions: Echinochloa crus-galli, post-emergence, 312 h, read-out: Barnyardgrass damage rating
In short: as §2

[9] = system: redroot pigweed (Amaranthus retroflexus); test: Test G Post-Emergence Protocol; conditions: Amaranthus retroflexus, post-emergence, 312 h, read-out: Pigweed, Redroot damage rating
In short: as §2

[10] = system: corn (Zea mays); test: Test G Post-Emergence Protocol; conditions: Zea mays, post-emergence, 312 h, read-out: Corn damage rating
In short: as §2

[11] = system: ivy-leaved morning glory (Ipomoea hederacea); test: Test G Post-Emergence Protocol; conditions: Ipomoea, post-emergence, 312 h, read-out: Morningglory, Ivy-leaved damage rating
In short: as §2

[12] = system: velvetleaf (Abutilon theophrasti); test: Test G Post-Emergence Protocol; conditions: Abutilon theophrasti, post-emergence, 312 h, read-out: Velvetleaf damage rating
In short: as §2

[13] = 15.625 g ai/ha, evaluated after 13 days (100=total damage to plant; 0=no damage to plant)
[14] = 62.5 g ai/ha, evaluated after 13 days, 100=total damage to plant, 0=no damage to plant
[15] = 250 g ai/ha, evaluated after 13 days, 100=total damage to plant, 0=no damage to plant

CN1C[C@H](c2ccc(C(F)(F)F)cc2)[C@@H](C(=O)Nc2cnccc2[N+](=O)[O-])C1=O (racemic) [Compound 1729]
0%: pest or weed control at 15.625 g/ha ([1]; 15.625 g ai/ha, read-out: Foxtail, Giant damage rating (100=total damage to plant; 0=no damage to plant)) | pest or weed control at 62.5 g/ha ([1]; 62.5 g ai/ha, 100=total damage to plant, 0=no damage to plant, read-out: Foxtail, Giant damage rating) | pest or weed control at 250 g/ha ([1]; 250 g ai/ha, read-out: Foxtail, Giant damage rating (100=total damage to plant; 0=no damage to plant)) | pest or weed control at 15.625 g/ha ([2]; 15.625 g ai/ha, read-out: Barnyardgrass damage rating (100=total damage to plant; 0=no damage to plant)) | pest or weed control at 62.5 g/ha ([2]; 62.5 g ai/ha, 100=total damage to plant, 0=no damage to plant, read-out: Barnyardgrass damage rating) | pest or weed control at 250 g/ha ([2]; 250 g ai/ha, read-out: Barnyardgrass damage rating (100=total damage to plant; 0=no damage to plant)) | pest or weed control at 15.625 g/ha ([3]; 15.625 g ai/ha, read-out: Pigweed, Redroot damage rating (100=total damage to plant; 0=no damage to plant)) | pest or weed control at 62.5 g/ha ([3]; 62.5 g ai/ha, 100=total damage to plant, 0=no damage to plant, read-out: Pigweed, Redroot damage rating) | pest or weed control at 250 g/ha ([3]; 250 g ai/ha, read-out: Pigweed, Redroot damage rating (100=total damage to plant; 0=no damage to plant)) | plant injury at 15.625 g/ha ([4]; 15.625 g ai/ha, read-out: Corn damage rating (100=total damage to plant; 0=no damage to plant)) | plant injury at 62.5 g/ha ([4]; 62.5 g ai/ha, 100=total damage to plant, 0=no damage to plant, read-out: Corn damage rating) | plant injury at 250 g/ha ([4]; 250 g ai/ha, read-out: Corn damage rating (100=total damage to plant; 0=no damage to plant)) | pest or weed control at 15.625 g/ha ([5]; 15.625 g ai/ha, read-out: Morningglory, Ivy-leaved damage rating (100=total damage to plant; 0=no damage to plant)) | pest or weed control at 62.5 g/ha ([5]; 62.5 g ai/ha, 100=total damage to plant, 0=no damage to plant, read-out: Morningglory, Ivy-leaved damage rating) | pest or weed control at 250 g/ha ([5]; 250 g ai/ha, read-out: Morningglory, Ivy-leaved damage rating (100=total damage to plant; 0=no damage to plant)) | pest or weed control at 15.625 g/ha ([6]; 15.625 g ai/ha, read-out: Velvetleaf damage rating (100=total damage to plant; 0=no damage to plant)) | pest or weed control at 62.5 g/ha ([6]; 62.5 g ai/ha, 100=total damage to plant, 0=no damage to plant, read-out: Velvetleaf damage rating) | pest or weed control at 250 g/ha ([6]; 250 g ai/ha, read-out: Velvetleaf damage rating (100=total damage to plant; 0=no damage to plant)) | pest or weed control at 15.625 g/ha [7, 13] | pest or weed control at 62.5 g/ha [7, 14] | pest or weed control at 250 g/ha [7, 15] | pest or weed control at 15.625 g/ha [8, 13] | pest or weed control at 62.5 g/ha [8, 14] | pest or weed control at 250 g/ha [8, 15] | pest or weed control at 15.625 g/ha [9, 13] | pest or weed control at 62.5 g/ha [9, 14] | pest or weed control at 250 g/ha [9, 15] | plant injury at 15.625 g/ha [10, 13] | plant injury at 62.5 g/ha [10, 14] | plant injury at 250 g/ha [10, 15] | pest or weed control at 15.625 g/ha [11, 13] | pest or weed control at 62.5 g/ha [11, 14] | pest or weed control at 250 g/ha [11, 15] | pest or weed control at 15.625 g/ha [12, 13] | pest or weed control at 62.5 g/ha [12, 14] | pest or weed control at 250 g/ha [12, 15]
